# Assays:
# Assay type in all cases: cell-based
# Ramos = experiment: Cancer cell panel, cell viability (resazurin): Burkitt's Lymphoma, Ramos; settings: 72 hours, labelled drug combined with Example 3
# 786-O = experiment: Cancer cell panel, cell viability (resazurin): Renal, 786-O; settings: 786-O (Renal), 72 hours; labelled drug combined with Example 3
# NAMALWA = experiment: Cancer cell panel, cell viability (resazurin): Burkitt's Lymphoma, NAMALWA; settings: 72 hours, labelled drug combined with Example 3
# Description: (§1) Cells were plated in 96-well plates and treated for 72 hours with a serially diluted CK2 inhibitor or anti-cancer drug or their combination. The suspension cell lines were treated right after plating, while the adherent cells were allowed to attach overnight prior to the start of the treatment.
# (§2) Cell viability was determined by adding resazurin to cell cultures and measuring fluorescence with a plate reader. Relative cell viability was calculated by dividing the cell viability signal from a test sample by that of a non-treated control. […] Bliss Independence and Highest Single Agent models were used to determine if there is synergy, additivity or antagonism between the CK2 inhibitor and an anti-cancer drug.
# BT-474 = experiment: Cancer cell panel, cell viability (resazurin): Breast, BT-474; settings: BT-474 (Breast), 72 hours; labelled drug combined with Example 3
# DLD-1 = experiment: Cancer cell panel, cell viability (resazurin): Colon, DLD-1; settings: DLD-1 (Colon), 72 hours; labelled drug combined with Example 3
# Description: as §1, §2
# H460 = experiment: Cancer cell panel, cell viability (resazurin): NSCLC, H460; settings: 72 hours, labelled drug combined with Example 3
# H1975 = experiment: Cancer cell panel, cell viability (resazurin): NSCLC, H1975; settings: 72 hours, labelled drug combined with Example 3
# Description: as §1, §2
# Caov-3 = experiment: Cancer cell panel, cell viability (resazurin): Ovarian, Caov-3; settings: Caov-3 (Ovarian), 72 hours; labelled drug combined with Example 3
# Raji = experiment: Cancer cell panel, cell viability (resazurin): Burkitt's Lymphoma, Raji; settings: 72 hours, labelled drug combined with Example 3
# Description: as §1, §2
# WM-115 = experiment: Cancer cell panel, cell viability (resazurin): Melanoma, WM-115; settings: WM-115 (Melanoma), 72 hours; labelled drug combined with Example 3
# SK-MEL-24 = experiment: Cancer cell panel, cell viability (resazurin): Melanoma, SK-MEL-24; settings: SK-MEL-24 (Melanoma), 72 hours; labelled drug combined with Example 3
# A375 = experiment: Cancer cell panel, cell viability (resazurin): Melanoma, A375; settings: 72 hours, labelled drug combined with Example 3
# K562 = experiment: Cancer cell panel, cell viability (resazurin): Leukemia, K562; settings: 72 hours, labelled drug combined with Example 3
# BxPC3 = experiment: Cancer cell panel, cell viability (resazurin): Pancreatic, BxPC3; settings: 72 hours, labelled drug combined with Example 3
# RPMI8226 = experiment: Cancer cell panel, cell viability (resazurin): multiple myeloma, RPMI8226; settings: 72 hours, labelled drug combined with Example 3
# Description: as §1, §2
# MeWO = experiment: Cancer cell panel, cell viability (resazurin): Melanoma, MeWO; settings: 72 hours, labelled drug combined with Example 3
# Description: as §1, §2
# HL60 = experiment: Cancer cell panel, cell viability (resazurin): Leukemia, HL60; settings: 72 hours, labelled drug combined with Example 3
# MOLT4 = experiment: Cancer cell panel, cell viability (resazurin): Leukemia, MOLT4; settings: 72 hours, labelled drug combined with Example 3
# Daudi = experiment: Cancer cell panel, cell viability (resazurin): Burkitt's Lymphoma, Daudi; settings: 72 hours, labelled drug combined with Example 3
# MDA-MB-157 = experiment: Cancer cell panel, cell viability (resazurin): Breast, MDA-MB-157; settings: MDA-MB-157 (Breast), 72 hours; labelled drug combined with Example 3
# Description: as §1, §2
# SK-MEL-3 = experiment: Cancer cell panel, cell viability (resazurin): Melanoma, SK-MEL-3; settings: SK-MEL-3 (Melanoma), 72 hours; labelled drug combined with Example 3
# SKOV-3 = experiment: Cancer cell panel, cell viability (resazurin): Ovarian, SKOV-3; settings: SKOV-3 (Ovarian), 72 hours; labelled drug combined with Example 3
# ZR-75-1 = experiment: Cancer cell panel, cell viability (resazurin): Breast, ZR-75-1; settings: ZR-75-1 (Breast), 72 hours; labelled drug combined with Example 3
# Description: as §1, §2
# Colo205 = experiment: Cancer cell panel, cell viability (resazurin): Colon, Colo205; settings: 72 hours, labelled drug combined with Example 3
# LnCap = experiment: Cancer cell panel, cell viability (resazurin): Prostate, LnCap; settings: 72 hours, labelled drug combined with Example 3
# Description: as §1, §2
# H1299 = experiment: Cancer cell panel, cell viability (resazurin): NSCLC, H1299; settings: 72 hours, labelled drug combined with Example 3
# H23 = experiment: Cancer cell panel, cell viability (resazurin): NSCLC, H23; settings: 72 hours, labelled drug combined with Example 3
# Description: as §1, §2
# LoVo = experiment: Cancer cell panel, cell viability (resazurin): Colon, LoVo; settings: 72 hours, labelled drug combined with Example 3
# HCT116 = experiment: Cancer cell panel, cell viability (resazurin): Colon, HCT116; settings: 72 hours, labelled drug combined with Example 3
# U266 = experiment: Cancer cell panel, cell viability (resazurin): multiple myeloma, U266; settings: 72 hours, labelled drug combined with Example 3
# A549 = experiment: Cancer cell panel, cell viability (resazurin): NSCLC, A549; settings: 72 hours, labelled drug combined with Example 3
smiles,measurement,setting,value
"CC[C@]1(O)C[C@@H]2CN(CCc3c([nH]c4ccccc34)[C@@](C(=O)OC)(c3cc4c(cc3OC)N(C)[C@H]3[C@@](O)(C(=O)OC)[C@H](OC(C)=O)[C@]5(CC)C=CCN6CC[C@]43[C@@H]65)C2)C1 [Vinblastine, vinblastine]","synergy, additivity or antagonism of the combination of Example 3 with the anti-cancer drug",Ramos,+ (Additive relative to each agent alone (CI = 0.9-1 by Bliss Independence Model and <0.9 by Highest Single Agent Model))
same,"synergy, additivity or antagonism of the combination of Example 3 with the anti-cancer drug",786-O,+ + + (Synergy relative to each agent alone (CI = 0.4-0.74 by Bliss Independence Model))
same,"synergy, additivity or antagonism of the combination of Example 3 with the anti-cancer drug",NAMALWA,+ (Additive relative to each agent alone (CI = 0.9-1 by Bliss Independence Model and <0.9 by Highest Single Agent Model))
same,"synergy, additivity or antagonism of the combination of Example 3 with the anti-cancer drug",BT-474,+ (Additive relative to each agent alone (CI = 0.9-1 by Bliss Independence Model and <0.9 by Highest Single Agent Model))
same,"synergy, additivity or antagonism of the combination of Example 3 with the anti-cancer drug",DLD-1,+ + + + (Strong synergy relative to each agent alone (CI < 0.4 by Bliss Independence Model))
same,"synergy, additivity or antagonism of the combination of Example 3 with the anti-cancer drug",H460,+ (Additive relative to each agent alone (CI = 0.9-1 by Bliss Independence Model and <0.9 by Highest Single Agent Model))
same,"synergy, additivity or antagonism of the combination of Example 3 with the anti-cancer drug",H1975,+ (Additive relative to each agent alone (CI = 0.9-1 by Bliss Independence Model and <0.9 by Highest Single Agent Model))
same,"synergy, additivity or antagonism of the combination of Example 3 with the anti-cancer drug",Caov-3,+ (Additive relative to each agent alone (CI = 0.9-1 by Bliss Independence Model and <0.9 by Highest Single Agent Model))
same,"synergy, additivity or antagonism of the combination of Example 3 with the anti-cancer drug",Raji,+ (Additive relative to each agent alone (CI = 0.9-1 by Bliss Independence Model and <0.9 by Highest Single Agent Model))
same,"synergy, additivity or antagonism of the combination of Example 3 with the anti-cancer drug",WM-115,+ (Additive relative to each agent alone (CI = 0.9-1 by Bliss Independence Model and <0.9 by Highest Single Agent Model))
same,"synergy, additivity or antagonism of the combination of Example 3 with the anti-cancer drug",SK-MEL-24,+ (Additive relative to each agent alone (CI = 0.9-1 by Bliss Independence Model and <0.9 by Highest Single Agent Model))
same,"synergy, additivity or antagonism of the combination of Example 3 with the anti-cancer drug",A375,+ (Additive relative to each agent alone (CI = 0.9-1 by Bliss Independence Model and <0.9 by Highest Single Agent Model))
same,"synergy, additivity or antagonism of the combination of Example 3 with the anti-cancer drug",K562,+ (Additive relative to each agent alone (CI = 0.9-1 by Bliss Independence Model and <0.9 by Highest Single Agent Model))
same,"synergy, additivity or antagonism of the combination of Example 3 with the anti-cancer drug",BxPC3,+ + + (Synergy relative to each agent alone (CI = 0.4-0.74 by Bliss Independence Model))
same,"synergy, additivity or antagonism of the combination of Example 3 with the anti-cancer drug",RPMI8226,+ (Additive relative to each agent alone (CI = 0.9-1 by Bliss Independence Model and <0.9 by Highest Single Agent Model))
same,"synergy, additivity or antagonism of the combination of Example 3 with the anti-cancer drug",MeWO,+ (Additive relative to each agent alone (CI = 0.9-1 by Bliss Independence Model and <0.9 by Highest Single Agent Model))
same,"synergy, additivity or antagonism of the combination of Example 3 with the anti-cancer drug",HL60,+ + (Slight synergy relative to each agent alone (CI = 0.75-0.9 by Bliss Independence Model))
same,"synergy, additivity or antagonism of the combination of Example 3 with the anti-cancer drug",MOLT4,− (Slightly antagonistic relative to each agent alone (CI = 1.1-1.2 by Highest Single Agent Model))
same,"synergy, additivity or antagonism of the combination of Example 3 with the anti-cancer drug",Daudi,+ (Additive relative to each agent alone (CI = 0.9-1 by Bliss Independence Model and <0.9 by Highest Single Agent Model))
same,"synergy, additivity or antagonism of the combination of Example 3 with the anti-cancer drug",MDA-MB-157,+ + (Slight synergy relative to each agent alone (CI = 0.75-0.9 by Bliss Independence Model))
same,"synergy, additivity or antagonism of the combination of Example 3 with the anti-cancer drug",SK-MEL-3,+ (Additive relative to each agent alone (CI = 0.9-1 by Bliss Independence Model and <0.9 by Highest Single Agent Model))
same,"synergy, additivity or antagonism of the combination of Example 3 with the anti-cancer drug",SKOV-3,+ (Additive relative to each agent alone (CI = 0.9-1 by Bliss Independence Model and <0.9 by Highest Single Agent Model))
same,"synergy, additivity or antagonism of the combination of Example 3 with the anti-cancer drug",ZR-75-1,+ (Additive relative to each agent alone (CI = 0.9-1 by Bliss Independence Model and <0.9 by Highest Single Agent Model))
same,"synergy, additivity or antagonism of the combination of Example 3 with the anti-cancer drug",Colo205,+ + + (Synergy relative to each agent alone (CI = 0.4-0.74 by Bliss Independence Model))
same,"synergy, additivity or antagonism of the combination of Example 3 with the anti-cancer drug",LnCap,+ (Additive relative to each agent alone (CI = 0.9-1 by Bliss Independence Model and <0.9 by Highest Single Agent Model))
same,"synergy, additivity or antagonism of the combination of Example 3 with the anti-cancer drug",H1299,+ (Additive relative to each agent alone (CI = 0.9-1 by Bliss Independence Model and <0.9 by Highest Single Agent Model))
same,"synergy, additivity or antagonism of the combination of Example 3 with the anti-cancer drug",H23,+ + (Slight synergy relative to each agent alone (CI = 0.75-0.9 by Bliss Independence Model))
same,"synergy, additivity or antagonism of the combination of Example 3 with the anti-cancer drug",LoVo,+ (Additive relative to each agent alone (CI = 0.9-1 by Bliss Independence Model and <0.9 by Highest Single Agent Model))
same,"synergy, additivity or antagonism of the combination of Example 3 with the anti-cancer drug",HCT116,+ (Additive relative to each agent alone (CI = 0.9-1 by Bliss Independence Model and <0.9 by Highest Single Agent Model))
same,"synergy, additivity or antagonism of the combination of Example 3 with the anti-cancer drug",U266,+ (Additive relative to each agent alone (CI = 0.9-1 by Bliss Independence Model and <0.9 by Highest Single Agent Model))
same,"synergy, additivity or antagonism of the combination of Example 3 with the anti-cancer drug",A549,+ + + (Synergy relative to each agent alone (CI = 0.4-0.74 by Bliss Independence Model))

# Source: US10227344B2, “CK2 inhibitors, compositions and methods thereof” (Polaris Pharmaceuticals, Inc., priority 2016, dated 2019)
